Results reported in patent US20250353891A1 (MEDIMMUNE LIMITED, priority 2022, published 2025).
pEC50: −log10 of the molar value. Like-named read-outs stand apart in the source and are kept apart here. Starred links: 1 amine or outer side, 2 acyl side, 3 side chain; linkers in the order of their positions; H or OH if unused. Non-standard residues stand in square brackets, D forms with d. Residues, ends and D or L forms follow the SMILES beside them. Groups on a side chain read outwards from the residue. *: point of attachment. C18 diacid = O=C(O)CCCCCCCCCCCCCCCCC(=O)*; γGlu = O=C(O)[C@H](CCC(=O)[*:2])N[*:1]; αMeF = C[C@](N)(Cc1ccccc1)C(=O)O; AEEA = NCCOCCOCC(=O)O; Aib = CC(C)(N)C(=O)O

Key:
[1] = target: human glucagon receptor (hGCGR) (Homo sapiens, UniProt P47871); assay: cAMP production (HTRF) in CHO cells expressing hGCGR; assay type: cell-based; parameters: expressed in transfected cells; settings: geometric mean, read-out: hGluc-R EC50
human glucagon receptor (hGCGR), sequence (P47871 26-477): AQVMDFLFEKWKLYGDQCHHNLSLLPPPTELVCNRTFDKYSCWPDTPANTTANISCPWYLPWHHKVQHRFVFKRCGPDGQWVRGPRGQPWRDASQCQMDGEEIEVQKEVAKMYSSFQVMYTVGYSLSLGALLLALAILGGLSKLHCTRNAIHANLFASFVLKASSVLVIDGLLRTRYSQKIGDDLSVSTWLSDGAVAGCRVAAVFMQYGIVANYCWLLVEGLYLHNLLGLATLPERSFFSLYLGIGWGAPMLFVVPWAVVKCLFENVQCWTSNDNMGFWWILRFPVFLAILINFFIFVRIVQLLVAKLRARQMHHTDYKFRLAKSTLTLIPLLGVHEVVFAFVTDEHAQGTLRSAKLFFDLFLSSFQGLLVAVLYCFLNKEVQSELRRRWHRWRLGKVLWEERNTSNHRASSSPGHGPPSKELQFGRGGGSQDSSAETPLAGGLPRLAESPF
Method in brief: (§1)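 Read-out: HTRF cAMP (anti-cAMP cryptate donor, cAMP-d2 acceptor in conjugate/lysis buffer), converted to % Delta F and fitted by 4-parameter logistic for EC50. Cell densities were 1×10^5 cells/mL (hGLP-1R) or 2×10^5 cells/mL (hGCGR). Stimulation lasted 30 min at room temperature.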

[2] = target: human GLP-1 receptor (hGLP-1R) (Homo sapiens, UniProt P43220); assay: cAMP production (HTRF) in CHO cells expressing hGLP-1R; assay type: cell-based; parameters: expressed in transfected cells; settings: for pEC50: geometric mean, read-out: hGLP-1R EC50; for % Relative Potency Ratio: % GLP-1R activity relative to GLP-1 / % GlucR activity relative to glucagon
human GLP-1 receptor (hGLP-1R), sequence (P43220 24-463): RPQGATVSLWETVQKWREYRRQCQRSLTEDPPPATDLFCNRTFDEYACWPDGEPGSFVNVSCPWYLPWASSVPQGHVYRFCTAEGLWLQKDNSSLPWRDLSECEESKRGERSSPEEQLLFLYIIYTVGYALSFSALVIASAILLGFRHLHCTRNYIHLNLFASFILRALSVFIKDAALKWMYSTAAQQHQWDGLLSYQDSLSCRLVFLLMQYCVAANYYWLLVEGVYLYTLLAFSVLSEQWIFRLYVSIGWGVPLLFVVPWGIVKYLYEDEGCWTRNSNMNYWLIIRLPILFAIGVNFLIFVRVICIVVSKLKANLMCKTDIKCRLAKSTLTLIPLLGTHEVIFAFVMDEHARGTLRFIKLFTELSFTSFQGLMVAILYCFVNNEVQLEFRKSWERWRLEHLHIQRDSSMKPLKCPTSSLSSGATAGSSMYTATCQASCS
Method in brief: as §1

[3] = Mouse acute food intake study; assay type: in vivo; settings: male C57Bl/6 mice, s.c., dose 10 nmol/kg, cumulative food intake at 24 hr vs vehicle
Method in brief: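 Peptide or vehicle went subcutaneously (5 mL/kg) to 6-8 h-fasted male C57Bl/6 mice shortly before the dark phase, with groups balanced on body weight and 24-hour intake. Cumulative food consumption was derived from 48 h of automated BioDaq monitoring with free food and water access.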

[4] = test system: GLP-1R knockout (KO) mice; assay: Glucose change in GLP-1R knockout mice; assay type: in vivo, mouse; settings: GLP-1R KO mice, s.c.; for GLP-1R KO % glucose change - 60 min: 60 min vs 0 min, no somatostatin pretreatment; for GLP-1R KO % glucose change 120 min: 120 min vs 0 min, somatostatin pretreatment (octreotide) 30 min prior to cpd
Protocol: (§2) They acclimated for a minimum of ˜1-2 weeks, and mice were sorted into groups (n=4-8/group) based on body weight. On day of study, mice were fasted briefly for 2 hrs prior to study start. In some studies, mice were pre-treated with octreotide (BaChem, 10 mg/kg) at 30 minutes prior to peptide injection. Glucose was measured via glucometer at various timepoints including-30 min (prior to octreotide when used in studies), 0 min (before peptide dose), 30, 60, 120, 180, 240, and 360 minutes. Since these studies are acute in nature, mice were re-used for multiple studies (no more than 3) and always allowed at least a minimum wash-out period of 1 week.

wildtype (WT) mice = assay: Glucose change in wildtype mice; assay type: in vivo, mouse; settings: s.c.; for WT % glucose change 60 min: 60 min vs 0 min, no somatostatin pretreatment; for WT % glucose change 120 min: 120 min vs 0 min, somatostatin pretreatment (octreotide) 30 min prior to cpd
Protocol: as §2, with “GLP-1R knockout (KO) and wildtype (WT) mice at 8-14 weeks of age were singly housed on standard chow diet (Envigo, 2918) and automatic water. They” for “They”

Structure (SMILES)	pEC50 ([1]; Table 7, peptides modified at position 20, cAMP in CHO hGCGR cells)	pEC50 ([2]; Table 7, peptides modified at position 20, cAMP in CHO hGLP-1R cells)	% Relative Potency Ratio ([2]; Table 7)	24 hr % Vehicle Food Intake [3]	GLP-1R KO % glucose change - 60 min ([4]; 10 nmol/kg)	GLP-1R KO % glucose change - 60 min ([4]; 30 nmol/kg)	WT % glucose change 60 min (wildtype (WT) mice; 10 nmol/kg)	WT % glucose change 60 min (wildtype (WT) mice; 30 nmol/kg)	pEC50 ([1]; cAMP, CHO cells, 0.1% BSA)	% Relative Potency Ratio [2]	pEC50 ([2]; cAMP, CHO cells, 0.1% BSA)	GLP-1R KO % glucose change 120 min ([4]; 10 nmol/kg)	GLP-1R KO % glucose change 120 min ([4]; 30 nmol/kg)	WT % glucose change 120 min (wildtype (WT) mice; 10 nmol/kg)	WT % glucose change 120 min (wildtype (WT) mice; 30 nmol/kg)
CC[C@H](C)[C@H](NC(=O)C(C)(C)NC(=O)[C@H](C)NC(=O)[C@@H](NC(=O)[C@](C)(Cc1ccccc1)NC(=O)[C@H](CC(=O)O)NC(=O)[C@H](CCCCNC(=O)COCCOCCNC(=O)COCCOCCNC(=O)CC[C@H](NC(=O)CCCCCCCCCCCCCCCCC(=O)O)C(=O)O)NC(=O)[C@H](C)NC(=O)[C@H](C)NC(=O)[C@H](CCCNC(=N)N)NC(=O)[C@H](CO)NC(=O)[C@H](CC(=O)O)NC(=O)[C@H](CC(C)C)NC(=O)[C@](C)(Cc1ccccc1)NC(=O)[C@H](CCCCN)NC(=O)[C@H](CO)NC(=O)[C@@H](NC(=O)[C@H](CC(=O)O)NC(=O)[C@H](CO)NC(=O)[C@@H](NC(=O)[C@](C)(Cc1ccccc1)NC(=O)[C@H](CO)NC(=O)CNC(=O)[C@H](Cc1c[nH]cn1)NC(=O)C(C)(C)NC(=O)[C@@H](N)Cc1c[nH]cn1)[C@@H](C)O)C(C)C)[C@@H](C)CC)C(=O)N[C@@H](C)C(=O)N[C@@H](CCC(=O)O)C(=O)N[C@H](C(N)=O)[C@@H](C)O [Peptide 301] (H-H[Aib]HGS[αMeF]TSDVSK[αMeF]LDSRAAK([AEEA-AEEA-γGlu-C18 diacid])D[αMeF]IA[Aib]IAET-NH2; N-terminus assumed)	10.50	10.26	1.1	54.9%	29.1%	17.9%	−43%	−35.7%	–	–	–	–	–	–	–
CC[C@H](C)[C@H](NC(=O)[C@H](Cc1c[nH]c2ccccc12)NC(=O)[C@H](CCCCNC(=O)COCCOCCNC(=O)COCCOCCNC(=O)CC[C@H](NC(=O)CCCCCCCCCCCCCCCCC(=O)O)C(=O)O)NC(=O)[C@@H](NC(=O)[C@H](Cc1ccccc1)NC(=O)[C@H](CC(=O)O)NC(=O)[C@H](CCC(N)=O)NC(=O)[C@H](C)NC(=O)[C@H](C)NC(=O)[C@H](CCCNC(=N)N)NC(=O)[C@H](CO)NC(=O)[C@H](CC(=O)O)NC(=O)[C@H](CC(C)C)NC(=O)[C@](C)(Cc1ccccc1)NC(=O)[C@H](CCCCN)NC(=O)[C@H](CO)NC(=O)[C@@H](NC(=O)[C@H](CC(=O)O)NC(=O)[C@H](CO)NC(=O)[C@@H](NC(=O)[C@](C)(Cc1ccccc1)NC(=O)[C@H](CO)NC(=O)CNC(=O)[C@H](Cc1c[nH]cn1)NC(=O)C(C)(C)NC(=O)[C@@H](N)Cc1c[nH]cn1)[C@@H](C)O)C(C)C)C(C)C)C(=O)N[C@@H](C)C(=O)N[C@@H](CC(N)=O)C(=O)N[C@H](C(N)=O)[C@@H](C)O [Peptide 361] (H-H[Aib]HGS[αMeF]TSDVSK[αMeF]LDSRAAQDFVK([AEEA-AEEA-γGlu-C18 diacid])WIANT-NH2; N-terminus assumed)	–	–	–	78.8%	–	–	–	–	10.63	1.3	10.45	91.5%	93.8%	−23.0%	−38.1%
